Results reported in patent US10982337B2, “Corrosion inhibition” (SCHLUMBERGER TECHNOLOGY CORPORATION, priority 2015, dated 2021).
Each block holds one molecule with its values, some of them ahead of it.

How the values were obtained:
[1] = Corrosion weight loss test on steel coupons in HCl; set-up: Pitting Index: scale not given here
Source text: (§1) Such “acceptable” levels of corrosion are application-specific.

[2] = Corrosion weight loss test on steel coupons in HCl; set-up: Pitting Index: scale not given here; remark: listed apart in the source
Source text: as §1

[3] = Corrosion weight loss test on steel coupons in HCl
Procedure: Experiments were carried out with coupons of the following steels: • 22Cr125 also designated 2205, a duplex alloy steel which is an iron-chromium-nickel-molybdenum alloy, used (among other things) to fabricate casing. • HS80™ (TradeMark of TENARIS), a low carbon steel used to fabricate coiled tubing. • N80, a medium carbon steel used to fabricate borehole casing. • 13Cr80, an alloy steel containing 13 wt % chromium without nickel, also used to fabricate borehole casing.
(1) Metal Type: Duplex Stainless Steel 22Cr125 Casing (2205 b6); 4 mol/L HCl, T=80° C., 3 Hours Exposure

[4] = Corrosion weight loss test on steel coupons in HCl; set-up: Pitting Index: scale not given here; remark: listed apart in the source
Source text: as §1

[5] = Solubility in hydrochloric acid solutions; type: physicochemical; settings: compared with NMTHQ
Source text: As a result, a surfactant is required to solubilise NTHQ for corrosion testing purposes. The surfactant used in this example is P2393, a polyoxyethylene tridecyl ether, C13H27(OCH2CH2)nOH, where n=10.
As a result, a surfactant is required to solubilise NTHQ for corrosion testing purposes. As for example 5 (NTHQ), the surfactant used to solubilise NCOTHQ is P2393, a polyoxyethylene tridecyl ether, C13H27(OCH2CH2)nOH, where n=10.

[6] = 0.1542 wt % (5.13 mmol/L), KI 0, 2205 (b9), 5 mL 2-butoxyethanol in 200 mL 4 mol/L HCl

SMILES: c1ccc2c(CN3CCC[C@H]4CCCC[C@@H]43)cccc2c1 [4aR-8aS-NMDHQ]
- Pitting Index ([1]; 0.3098 wt % (11.09 mmol/L), KI 0): 1
- Pitting Index ([2]; 0.3087 wt % (11.05 mmol/L), KI 0): 2
- Pitting Index ([3]; 0.3095 wt % (11.08 mmol/L), KI 0, 2205 (b8)): 1
- Pitting Index ([4]; 0.3076 wt % (11.01 mmol/L), KI 0, 13Cr): 2

SMILES: c1ccc2c(CNCCc3c[nH]c4ccccc34)cccc2c1 [HINNME, 2-(1H-indol-3-yl)-N-(naphthalene-1-ylmethyl)ethan-1-amine]
- Pitting Index ([3]; 0.1500 wt % (4.99 mmol/L) + KI 20 mmol/L, 2205 (b9), 5 mL 2-butoxyethanol in 200 mL 4 mol/L HCl): 0
- Pitting Index [3, 6]: 2

SMILES: [I-].[K+] [KI, potassium iodide, reference compound]
- Pitting Index ([1]; KI 10 mmol/L alone, no NMTHQ): 5
- Pitting Index ([2]; KI 10 mmol/L alone, no NMTHQ): 2
- Pitting Index ([3]; KI 10 mmol/L alone, no organic inhibitor, 2205 (b5)): 5
- Pitting Index ([3]; KI 20 mmol/L alone, no organic inhibitor, 2205 (b5), 4 mol/L HCl, 80° C., 3 hours): 5
- Pitting Index ([4]; KI 10 mmol/L alone, no NMTHQ): 5

- solubility in hydrochloric acid solutions (in words) [5]: significantly less soluble than NMTHQ
SMILES: O=C(c1cccc2ccccc12)N1CCCc2ccccc21 [NCOTHQ, (3,4-dihydroquinolin-1(2H)-yl)(naphthalene-1-yl)methanone]

SMILES: c1ccc2c(CN3CCCC4CCCCC43)cccc2c1 (stereo not shown) [NMDHQ, 1-(naphthalen-1-ylmethyl)decahydroquinoline]
- Pitting Index ([1]; 0.3068 wt % (10.98 mmol/L), KI 0): 0
- Pitting Index ([2]; 0.3061 wt % (10.95 mmol/L), KI 0): 2
- Pitting Index ([3]; 0.1414 wt % (5.0 mmol/L) + KI 10 mmol/L, 2205 (b8)): 0
- Pitting Index ([3]; 0.1414 wt % (5.0 mmol/L) + KI 20 mmol/L, 2205 (b8)): 0
- Pitting Index ([3]; 0.3088 wt % (11.05 mmol/L), KI 0, 2205 (b8)): 1
- Pitting Index ([4]; 0.3094 wt % (11.07 mmol/L), KI 0, 13Cr): 2

SMILES: NCCc1cn(Cc2cccc3ccccc23)c2ccccc12 [NMHIE, 2-(1-(Naphthalene-1ylmethyl)-1H-indol-3-yl)ethan-1-amine]
- Pitting Index ([3]; 0.1500 wt % (4.99 mmol/L) + KI 20 mmol/L, 2205 (b9), 0.5 wt % P2393 in 4 mol/L HCl): 0
- Pitting Index ([3]; 0.1542 wt % (5.13 mmol/L), KI 0, 2205 (b9), 0.5 wt % P2393 in 4 mol/L HCl): 5
- Pitting Index [3, 6]: 3

SMILES: c1ccc2c(c1)CCN2Cc1cccc2ccccc12 [NMI, 1-(naphthalen-1-ylmethyl)indoline]
- Pitting Index ([3]; 0.1304 wt % (5.03 mmol/L), KI 0, 2205 (b9)): 3
- Pitting Index ([3]; 0.1308 wt % (5.04 mmol/L) + KI 20 mmol/L, 2205 (b9)): 0

SMILES: c1ccc2c(CN3CCOCC3)cccc2c1 [NMM, 4-(naphthalene-1-ylmethyl)morpholine]
- Pitting Index ([3]; 0.1397 wt % (5.04 mmol/L) + KI 20.12 mmol/L, 2205 (b9)): 2
- Pitting Index ([3]; 0.1402 wt % (5.05 mmol/L), KI 0, 2205 (b9)): 5

SMILES: c1ccc2c(c1)CCN(Cc1ccc3ccccc3c1)C2 [NMTHisoQ]
- Pitting Index ([3]; 0.1366 wt % (5.00 mmol/L) + KI 20 mmol/L, 2205 (b5), 4 mol/L HCl, 80° C., 3 hours): 0
- Pitting Index ([3]; 0.1367 wt % (5.00 mmol/L), KI 0, 2205 (b5), 4 mol/L HCl, 80° C., 3 hours): 1

- solubility in hydrochloric acid solutions (in words) [5]: significantly less soluble than NMTHQ
SMILES: c1ccc2c(c1)CCCN2c1cccc2ccccc12 [NTHQ, 1-(naphthalen-1-yl)-1,2,3,4-tetrahydroquinoline]
- Pitting Index ([2]; 11.00 mmol/L + additive P2393, 0.5 wt %): 1
- Pitting Index ([3]; 11.00 mmol/L + additive P2393, 0.5 wt %, 2205 (b5)): 3

SMILES: c1ccc2ncccc2c1 [Quinoline, reference compound]
- Pitting Index ([3]; 0.1421 wt % (11.00 mmol/L), 2205 b6, 4 mol/L HCl, 80° C., 3 hours): 6
